We go through 4 compounds from PMC5339036 (Angewandte Chemie (International ed. in English), 2017).

A word on the IC50: it is the concentration that inhibits the measured activity by half.

Series [1] has as its system axolotl (Ambystoma mexicanum) embryo tail regeneration.
The nature of series [2]: cancer cell line cytotoxicity assay. The settings on record: human, A549 cells (non-small cell lung cancer cell line).
For series [3], the system named is human non-small cell lung A549.
In another series the target is Hsp90α (Homo sapiens, UniProt P07900). As to the kind of experiment: standard Hsp90α inhibition. In kind it is binding.
The conditions of series [4]: second generation clinical analogue; cited from earlier work.
For series [5] the following is noted: second generation clinical analogue; cited from earlier work. The source holds these as a separate data set.

Counter-ions that a name gives are not always drawn. Some results are limits rather than exact numbers.

In the case of `COC1=C2C[C@@H](C)C[C@H](OC)[C@H](O)[C@@H](C)/C=C(\C)[C@H](OC(N)=O)[C@@H](OC)/C=C\C=C(/C)C(=O)NC(=CC1=O)C2=O` [Gdm, Geldanamycin], in series [1] (10 μM, axolotl embryos), the “dose-response: observation at the highest dose” value is “developmental abnormalities and toxicity”. Also, the “axolotls dead at day 7” value in series [1] (axolotl (Ambystoma mexicanum), in vivo, 7 day) came to 3. Half-maximal inhibition in series [2] (IC50) was put at 1 nM.
Turning to 17-O-demethyl-reblastatin, the IC50 in series [3] was over 50000 nM.
For `COc1c(O)cc2cc1C[C@@H](C)C[C@H](OC)[C@H](O)[C@@H](C)/C=C(\C)[C@H](OC(N)=O)[C@@H](OC)CC/C=C(\C)C(=O)N2` [reblastatin], the figures for the IC50 (in series [2]; on Hsp90α) were 700 nM and 5 to 30 nM, respectively.
`C=CCNc1c(O)cc2c(O)c1C[C@@H](C)C[C@H](OC)[C@H](O)[C@@H](C)/C=C(\C)[C@H](OC(N)=O)[C@@H](OC)/C=C\C=C(/C)C(=O)N2` [retaspimycin hydrochloride/IPI-504, retaspimycin hydrochloride]: the “hepatotoxicity relative to first generation analogues” value in series [4] is “reduced hepatotoxicity”. Moreover, the “solubility relative to first generation analogues” value in series [5] is listed as “improved solubility”.
